In patent publication US20160281050A1, “METHODS FOR TREATING A CULTURE OF HAEMATOCOCCUS PLUVIALIS FOR CONTAMINATION USING SALT AND HYDROGEN PEROXIDE” (HELIAE DEVELOPMENT LLC, priority 2015, published 2016):
Read-outs that look alike come from different tables or passages of the source.

Experiments:
[1] = test system: chytrids;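 note: flask cultures run as treated duplicates beside untreated duplicate controls, with dosing halted by day 5 once lysis topped 10% and recovery afterwards tracked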
Excerpt: Culture samples of Haematococcus pluvialis (Strain 2) were collected on day 5 of the culture from open raceway bioreactor #2420 operating in conditions: reactor volume of 170,000 L; Daily PAR not measured; pH of 7.3; and paddlewheel speed of 70%). Culture samples were distributed into flasks for culturing, consisting of duplicate untreated controls and duplicate treatments. […] Samples were taken from the flask cultures every few days in order to quantify % lysis, % chytrid infection, and cell dry weight for a duration of about 11 days.

[2] = test system: live bacteria; settings: 0.0099 mL/L every 6 hours
Procedure: (§1) An experiment was conducted to determine if treating a culture of Haematococcus pluvialis with hydrogen peroxide affects the live bacteria count. […] The culture in bioreactor #2210 was treated with 0.33 mL/L hydrogen peroxide 3% stock concentration (calculated concentration of 0.0099 mL/L) every 6 hours for the duration of the culture's green swimmer stage (90 hours). The culture in bioreactor #2230 was not treated to serve as a control for comparison. Samples were taken to assess motility, lysis, and the live bacteria count in the cultures at 11, 34, 52, and 66 hours.

[3] = test system: Haematococcus pluvialis (Strain 1) green swimmer cells
Procedure: as §1

## hydrogen peroxide [H2O2]
[1]; 0.0105 mL/L 3 times per day (discontinued day 5), day 6
  % Chytrid infection: 2.5 ± 1.2%
[1]; 0.0105 mL/L 3 times per day (discontinued day 5), day 9
  % Chytrid infection: 7.5 ± 3.5%
[1]; 0.0105 mL/L 3 times per day (discontinued day 5), day 11
  % Chytrid infection: 100.0 ± 0.0%
[1]; 0.0105 mL/L 3 times per day, day 0
  % Chytrid infection: 0.0 ± 0.0%
[1]; 0.0105 mL/L 3 times per day, day 3
  % Chytrid infection: 0.8 ± 1.2%
[1]; 0.0105 mL/L 3 times per day, day 4
  % Chytrid infection: 2.5 ± 3.5%
[1]; 0.0105 mL/L 3 times per day, day 5
  % Chytrid infection: 1.7 ± 0.0%
[1]; 0.0140 mL/L 1 time per day (discontinued day 5), day 6
  % Chytrid infection: 2.5 ± 1.2%
[1]; 0.0140 mL/L 1 time per day (discontinued day 5), day 9
  % Chytrid infection: 0.0 ± 0.0%
[1]; 0.0140 mL/L 1 time per day (discontinued day 5), day 11
  % Chytrid infection: 35.8 ± 29.5%
[1]; 0.0140 mL/L 1 time per day, day 0
  % Chytrid infection: 0.0 ± 0.0%
[1]; 0.0140 mL/L 1 time per day, day 3
  % Chytrid infection: 0.0 ± 0.0%
[1]; 0.0140 mL/L 1 time per day, day 4
  % Chytrid infection: 0.0 ± 0.0%
[1]; 0.0140 mL/L 2 times per day (discontinued day 5), day 6
  % Chytrid infection: 5.8 ± 3.5%
[1]; 0.0140 mL/L 2 times per day (discontinued day 5), day 9
  % Chytrid infection: 43.3 ± 4.7%
[1]; 0.0140 mL/L 2 times per day (discontinued day 5), day 11
  % Chytrid infection: 97.5 ± 3.5%
[1]; 0.0140 mL/L 2 times per day, day 0
  % Chytrid infection: 0.0 ± 0.0%
[1]; 0.0140 mL/L 2 times per day, day 3
  % Chytrid infection: 2.5 ± 1.2%
[1]; 0.0140 mL/L 2 times per day, day 4
  % Chytrid infection: 2.5 ± 3.5%
[1]; 0.0140 mL/L 2 times per day, day 5
  % Chytrid infection: 5.0 ± 4.7%
[1]; 0.0140 mL/L 3 times per day (discontinued day 5), day 6
  % Chytrid infection: 0.0 ± 0.0%
[1]; 0.0140 mL/L 3 times per day (discontinued day 5), day 9
  % Chytrid infection: 0.0 ± 0.0%
[1]; 0.0140 mL/L 3 times per day (discontinued day 5), day 11
  % Chytrid infection: 11.7 ± 16.5%
[1]; 0.0140 mL/L 3 times per day, day 0
  % Chytrid infection: 0.0 ± 0.0%
[1]; 0.0140 mL/L 3 times per day, day 3
  % Chytrid infection: 3.3 ± 4.7%
[1]; 0.0140 mL/L 3 times per day, day 4
  % Chytrid infection: 0.0 ± 0.0%
[1]; 0.0140 mL/L 3 times per day, day 5
  % Chytrid infection: 0.0 ± 0.0%
[1]; 0.0175 mL/L 1 time per day (discontinued day 5), day 6
  % Chytrid infection: 0.0 ± 0.0%
[1]; 0.0175 mL/L 1 time per day (discontinued day 5), day 9
  % Chytrid infection: 0.0 ± 0.0%
[1]; 0.0175 mL/L 1 time per day (discontinued day 5), day 11
  % Chytrid infection: 34.2 ± 27.1%
[1]; 0.0175 mL/L 1 time per day, day 0
  % Chytrid infection: 0.0 ± 0.0%
[1]; 0.0175 mL/L 1 time per day, day 3
  % Chytrid infection: 0.8 ± 1.2%
[1]; 0.0175 mL/L 1 time per day, day 4
  % Chytrid infection: 1.7 ± 0.0%
[1]; 0.0175 mL/L 1 time per day, day 5
  % Chytrid infection: 1.7 ± 0.0%
[1]; all treated flasks, until 4-6 days after treatment ended
  chytrid infection: less than 10%
[2]; vs untreated control
  reduction in the bacteria count: approximately 1 log
[2]; 11 h
  Live Bacteria Count: 4.8 × 10^5 CFU/mL
[2]; 34 h
  Live Bacteria Count: 5.5 × 10^6 CFU/mL
[2]; 52 h
  Live Bacteria Count: 1.8 × 10^5 CFU/mL
[2]; 66 h
  Live Bacteria Count: 4.5 × 10^5 CFU/mL
[3]
  Motility: above 60%
  lysis: ≤ 15%
